Patent US20230348465A1, “IBOGAINE ANALOGS AS THERAPEUTICS FOR NEUROLOGICAL AND PSYCHIATRIC DISORDERS” (The Trustees of Columbia University in the City of New York, priority 2020, published 2023)
Where two headings read alike, the source gives them in different places.

Legend:
[1] = target: T1, hSERT (Homo sapiens, UniProt P31645); assay: hSERT screening assay: inhibition of uptake of the fluorescent substrate APP+ in stably transfected hSERT-HEK cells; assay type: cell-based; conditions: for IC50: hSERT-HEK cells, APP+ 1.1 µM, mean ± SEM, n ≥ 4, read-out: SERT IC50; for Ki: Cheng-Prusoff from IC50, Km (APP+) = 1.6 µM, read-out: SERT Ki
T1 construct: expressed in transfected cells; host or cells: HEK cells, stably transfected (hSERT-HEK), kept under G418
Protocol: (§1) Stably transfected hSERT-HEK and rVMAT2-HEK cellular cultures were maintained in Dulbecco’s Minimal Essential Medium (DMEM) with GlutaMAX (Gibco) with the following additions: 10% (v/v) Fetal Bovine Serum (FBS, Atlanta Biologicals), 100 U/mL Penicillin, and 10 µg/mL Streptomycin (Gibco). With regards to the former cell lineage, an additional ingredient, 500 µg/mLGeneticin (G418) (Sigma) was included to preserve the respective transgene.
(§2) For both hSERT and rVMAT2 screening experiments, respective singly transfected cells were seeded at a density of 0.09 × 10^6 cells/well in poly-D-Lysine (Sigma) coated white solid-bottom 96-well plates. Growth was permitted for approximately 44 hours in said aqueous media and at an incubation environment of 37° C. and 5% Carbon Dioxide. At the beginning of the experiment, the cellular growth solution was aspirated, and individual cells were rinsed with 150 µL of 1× Dulbecco’s Phosphate Buffered Saline (PBS; HyClone). 63 µL of Experimental Media (consisting of the following contents: DMEM without phenol red but with 4.5 g/L of D-Glucose (Gibco), 1 % (v/v) FBS (Atlanta Biologicals), 100 U/mL Penicillin, and 10 µg/mLStreptomycin (Gibco)) with 2 × tiered concentrations of inhibitor (or DMSO, the vehicle of these experiments) were added to the respective wells. […] After a required incubation period of 30 minutes for proper fluorescent probe uptake, the contents of each well were aspirated and consequently, rinsed twice with 120 µL of PBS. A final solution of 120 µL of PBS is finally added to all corresponding wells for cell maintenance before undergoing fluorescence uptake reading by a BioTek H1MF plate reader.
(§3) Numerical analysis of the collected experimental data preceded as accordingly. Respective inhibitor values were first subtracted from vehicular values to quantify the respective fluorescence uptake. This metric was then analyzed using the dose-response-inhibitor nonlinear curve fitting model ([inhibitor] vs response (three parameters)) as supplied by GraphPad Prism 6 software. For each inhibitor, the model supplied a respective IC50 ± SEM value (Table 1).

[2] = target: T2, rVMAT2 (Rattus norvegicus, UniProt Q01827); assay: rVMAT2 screening assay: inhibition of uptake of the fluorescent substrate FFN206 in stably transfected rVMAT2-HEK cells; assay type: cell-based; conditions: for Ki: read-out: VMAT2 Ki
T2 construct: expressed in transfected cells; host or cells: HEK cells, stably transfected (rVMAT2-HEK)
Protocol: as §1, §2, §3

[3] = Metabolic stability and noribogaine formation in human liver microsomes (HLM), LC-MS/MS; conditions: for percent remaining of parent compound: 10 µM, + NADPH
Protocol: (§4) Metabolism Studies. Metabolic stability of test compounds was evaluated in liver microsomes from rat (RLM) and human (HLM). This was accomplished by incubating test compounds with microsomes and monitoring disappearance of parent compound as well as metabolite formation over time using LC-MS/MS in Multiple Reaction Monitoring mode (MRM).
(§5) Stock solutions of test compounds were prepared in DMSO at a concentration of 10 mM.
(§6) From the above mix, 70 µL was added to individual wells of 96 well reaction plates and preincubated at 37° C. for 5 min. […] Reactions without NADPH and buffer controls (minus NADPH) at 0 min and 60 min were also incubated to rule out non-NADPH metabolism or chemical instability in the incubation buffer. All reactions were terminated using 100 µL of ice-cold acetonitrile containing internal standard (glipizide) at 0, 5, 15, 30 and 60 min.
(§7) Samples were monitored for parent compounds disappearance and formation of metabolite in MRM mode using LC-MS/MS instrument (API-4000 with Waters UPLC).
(§8) The percent remaining of test compounds and positive control in each sample was determined by considering peak area ratio in the 0 minute sample as 100%. The Half-life of compounds in microsomes is calculated by formula: […]
(§9) In vitro intrinsic clearance (CL´int) (units in mL/min/kg) was calculated using the formula: […]
(§10) * Indicates liver weight (gm) which varies species wise. For human, monkey, dog, rat and mouse the liver weight are 20 gm, 32 gm, 32 gm, 40 gm and 90 gm respectively.

[4] = Metabolic stability and noribogaine formation in rat liver microsomes (RLM), LC-MS/MS; conditions: for percent remaining of parent compound: 10 µM, + NADPH
Protocol: as §4, §5, §6, §7, §8, §9, §10

[5] = rVMAT2-HEK cells, FFN206 0.75 µM, mean ± SEM, n ≥ 4, read-out: VMAT2 IC50
[6] = ratio of potency to noribogaine

T2 sequence (Q01827 whole entry): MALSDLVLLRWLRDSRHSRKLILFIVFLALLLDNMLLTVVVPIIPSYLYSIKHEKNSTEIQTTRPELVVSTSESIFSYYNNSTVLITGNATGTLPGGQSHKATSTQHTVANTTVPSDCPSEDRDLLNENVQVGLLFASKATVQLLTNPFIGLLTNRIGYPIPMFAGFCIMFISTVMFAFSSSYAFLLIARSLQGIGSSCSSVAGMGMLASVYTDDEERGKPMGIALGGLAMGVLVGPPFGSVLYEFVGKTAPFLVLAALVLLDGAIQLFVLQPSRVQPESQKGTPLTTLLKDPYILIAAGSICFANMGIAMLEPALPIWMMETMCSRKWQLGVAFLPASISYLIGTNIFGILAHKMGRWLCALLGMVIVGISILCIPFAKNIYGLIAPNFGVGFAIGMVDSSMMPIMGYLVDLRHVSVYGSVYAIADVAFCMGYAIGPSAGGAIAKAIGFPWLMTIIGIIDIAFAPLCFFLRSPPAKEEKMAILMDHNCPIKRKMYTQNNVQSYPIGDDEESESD
T1 sequence (P31645 whole entry): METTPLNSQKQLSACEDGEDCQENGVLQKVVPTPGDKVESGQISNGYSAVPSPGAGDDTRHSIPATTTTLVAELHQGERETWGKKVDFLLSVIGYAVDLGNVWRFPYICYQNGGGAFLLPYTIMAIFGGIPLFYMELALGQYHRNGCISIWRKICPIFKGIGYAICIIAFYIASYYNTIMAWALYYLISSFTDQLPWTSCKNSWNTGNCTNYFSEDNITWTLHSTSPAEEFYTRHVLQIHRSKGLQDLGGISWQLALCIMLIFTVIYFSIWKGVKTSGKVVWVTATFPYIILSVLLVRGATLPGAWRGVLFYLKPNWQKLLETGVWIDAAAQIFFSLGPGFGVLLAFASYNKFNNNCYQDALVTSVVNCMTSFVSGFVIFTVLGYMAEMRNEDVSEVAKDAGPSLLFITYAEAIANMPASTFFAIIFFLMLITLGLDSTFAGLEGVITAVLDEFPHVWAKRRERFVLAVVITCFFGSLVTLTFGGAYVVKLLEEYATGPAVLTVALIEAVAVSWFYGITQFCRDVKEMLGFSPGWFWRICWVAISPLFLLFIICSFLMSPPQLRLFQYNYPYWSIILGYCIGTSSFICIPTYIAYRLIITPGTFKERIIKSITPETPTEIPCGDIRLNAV

Q: What does the source list for CCc1ccc2c(c1)c1c(n2C)C2CC3CC(CC)C2N(CC1)C3 (centres unmarked) [Compound 11, N-methyl-10-ethyl-ibogamine]?
A: IC50 [1]: 910 ± 120 nM; IC50 [2, 5]: 750 ± 70 nM

Q: For CCC1CC2CC3c4[nH]c5ccccc5c4CCN(C2)C13 (centres unmarked) [Compound 5, Ibogamine], which Ki [1] is on record?
A: 200 ± 20 nM

Q: What about the IC50 [1] of the same molecule?
A: 330 ± 40 nM

Q: And the IC50 [2, 5]?
A: 3000 ± 550 nM

Q: What about the “times weaker than noribogaine at VMAT2” value [2, 6] of the same molecule?
A: approximately 5.3

Q: What about the Ki [2] of the same molecule?
A: 1800 ± 340 nM

Q: For CCC1CC2CC3c4c(c5cc(OC)ccc5n4C)CCN(C2)C13 (centres unmarked) [Compound 7, N-methyl-ibogaine], which IC50 [1] is on record?
A: 1500 ± 130 nM

Q: What about the IC50 [2, 5] of the same molecule?
A: 740 ± 110 nM

Q: For CCC1CC2CC3c4c(c5cc(C#N)ccc5n4C)CCN(C2)C13 (centres unmarked) [Compound 10, N-methyl-ibogamine-10-carbonitrile], which IC50 [1] is on record?
A: 5.1 ± 0.83 nM

Q: What about the IC50 [2, 5] of the same molecule?
A: 440 ± 50 nM

Q: Which IC50 [1] does the source give for CCC1CC2CC3c4[nH]c5cc(Br)c(OC)cc5c4CCN(C2)C13 (centres unmarked) [Compound 18, 11-Bromo-ibogaine] here?
A: 200 ± 30 nM

Q: What about the IC50 [2, 5] of the same molecule?
A: 1000 ± 150 nM

Q: Which IC50 [1] does the source give for CCC1CC2CC3c4c(c5ccccc5n4C)CCN(C2)C13 (centres unmarked) [Compound 6, N-methyl-ibogamine] here?
A: 80 ± 9 nM

Q: And the IC50 [2, 5]?
A: 1500 ± 160 nM

Q: For CCC1CC2CC3c4c(c5cc(O)ccc5n4C)CCN(C2)C13 (centres unmarked) [Compound 8, N-methyl-noribogaine], which Ki [1] is on record?
A: 35 ± 6.7 nM

Q: And the IC50 [1]?
A: 59 ± 11 nM

Q: And the “times more potent than noribogaine at SERT” value [1, 6]?
A: approximately 4.7

Q: And the IC50 [2, 5]?
A: 170 ± 30 nM

Q: And the “times more potent than noribogaine at VMAT2” value [2, 6]?
A: approximately 3.4

Q: What about the Ki [2] of the same molecule?
A: 100 ± 20 nM

Q: With CCC1CC2CC3c4[nH]c5ccc(OC)cc5c4CCN(C2)C13 (centres unmarked) [Ibogaine] as the molecule, how does the “percent remaining of parent compound” value ([3]; HLM, 0 min) read?
A: 100%

Q: What about the “CLh,int” value ([3]; HLM, 45 mg microsomal protein per gm liver) of the same molecule?
A: 7 mL/min/kg

Q: And the “percent remaining of parent compound” value ([3]; HLM, 5 min)?
A: 104%

Q: And the “percent remaining of parent compound” value ([3]; HLM, 15 min)?
A: 98%

Q: What about the “percent remaining of parent compound” value ([3]; HLM, 30 min) of the same molecule?
A: 94%

Q: And the “percent remaining of parent compound” value ([3]; HLM, 60 min)?
A: 81%

Q: And the “% Remaining at 60 min (+ NADPH)” value ([3]; HLM, summary line)?
A: 81%

Q: And the “% Remaining at 60 min (- NADPH)” value ([3]; HLM, without NADPH)?
A: 98%

Q: And the “%Remaining at 60 min (Buffer)” value ([3]; buffer control, HLM column)?
A: 103%

Q: And the half-life at 10 µM ([3]; human, microsomes, pH 7.4)?
A: > 60 min

Q: What about the “percent remaining of parent compound” value ([4]; RLM, 0 min) of the same molecule?
A: 100%

Q: What about the “CLh,int” value ([4]; RLM, 45 mg microsomal protein per gm liver) of the same molecule?
A: 306 mL/min/kg

Q: What about the “percent remaining of parent compound” value ([4]; RLM, 5 min) of the same molecule?
A: 86%

Q: And the “percent remaining of parent compound” value ([4]; RLM, 15 min)?
A: 56%

Q: And the “percent remaining of parent compound” value ([4]; RLM, 30 min)?
A: 23%

Q: And the “percent remaining of parent compound” value ([4]; RLM, 60 min)?
A: 1%

Q: And the “% Remaining at 60 min (- NADPH)” value ([4]; RLM, without NADPH)?
A: 104%

Q: And the “%Remaining at 60 min (Buffer)” value ([4]; buffer control, RLM column)?
A: 103%

Q: And the half-life at 10 µM ([4]; male, rat, microsomes, pH 7.4)?
A: 8 min

Q: What about the IC50 [2] of the same molecule?
A: ~4000 nM
